Reference: patent US8512681B2 (GUMLINK A/S, priority 2005, dated 2013)

System: plaque
Conditions: in chewing gum

Which “effect on plaque in hard-to-reach places (in words)” value does the source give for `CC(=O)[O-].CC(=O)[O-].[Zn+2]` [zinc acetate] here?
Its value is “worked in the “hard-to-reach” places with high efficiency”.
